Measurements published in ChEMBL document CHEMBL1909046, “DrugMatrix in vitro pharmacology data”.

Legend:
[1] = biological target: T1, Muscarinic acetylcholine receptor M2 (Homo sapiens, UniProt P08172); assay type: cell membranes, CHO-K1, Membrane; details: cho-k1; also: in other assays of this panel Not Active means under 50% inhibition at 10 µM
T1 sequence (P08172 whole entry): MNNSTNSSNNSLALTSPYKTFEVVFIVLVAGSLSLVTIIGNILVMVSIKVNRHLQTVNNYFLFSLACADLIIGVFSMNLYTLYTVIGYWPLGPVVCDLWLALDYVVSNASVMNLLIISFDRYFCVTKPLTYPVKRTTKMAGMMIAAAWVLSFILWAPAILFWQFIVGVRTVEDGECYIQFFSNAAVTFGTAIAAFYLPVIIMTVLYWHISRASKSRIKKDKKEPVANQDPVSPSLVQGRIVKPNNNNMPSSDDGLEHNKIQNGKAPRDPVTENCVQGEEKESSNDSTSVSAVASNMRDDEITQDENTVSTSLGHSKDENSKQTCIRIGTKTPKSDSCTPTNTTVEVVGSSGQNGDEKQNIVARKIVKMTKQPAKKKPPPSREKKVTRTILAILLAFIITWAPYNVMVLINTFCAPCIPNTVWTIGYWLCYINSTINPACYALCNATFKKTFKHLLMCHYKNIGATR

[2] = biological target: T2, Muscarinic acetylcholine receptor M5 (Homo sapiens, UniProt P08912); assay type: cell membranes, CHO-K1, Membrane; details: cho-k1; also: in other assays of this panel Not Active means under 50% inhibition at 10 µM
T2 sequence (P08912 whole entry): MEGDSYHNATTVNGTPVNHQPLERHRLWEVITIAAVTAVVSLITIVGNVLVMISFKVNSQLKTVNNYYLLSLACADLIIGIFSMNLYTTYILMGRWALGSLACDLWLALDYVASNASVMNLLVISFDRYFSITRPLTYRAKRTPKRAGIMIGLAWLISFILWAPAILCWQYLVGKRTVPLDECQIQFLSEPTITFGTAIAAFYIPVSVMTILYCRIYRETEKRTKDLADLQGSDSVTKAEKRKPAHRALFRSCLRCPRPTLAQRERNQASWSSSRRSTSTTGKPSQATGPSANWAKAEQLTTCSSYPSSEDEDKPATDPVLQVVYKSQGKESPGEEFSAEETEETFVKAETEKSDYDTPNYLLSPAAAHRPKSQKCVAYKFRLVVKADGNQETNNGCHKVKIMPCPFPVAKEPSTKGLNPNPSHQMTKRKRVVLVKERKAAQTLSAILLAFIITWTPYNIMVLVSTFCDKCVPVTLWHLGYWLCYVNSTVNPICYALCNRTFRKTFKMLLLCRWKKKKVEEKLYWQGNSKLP

[3] = biological target: Kappa-type opioid receptor (Homo sapiens, UniProt P41145); test: DRUGMATRIX: Opiate kappa (OP2, KOP) radioligand binding (ligand: [3H] Diprenorphine); assay type: cell membranes, HEK293, Membrane; details: hek293; Not Active = under 50% inhibition at 10 µM
Chain of Kappa-type opioid receptor (P41145 whole entry): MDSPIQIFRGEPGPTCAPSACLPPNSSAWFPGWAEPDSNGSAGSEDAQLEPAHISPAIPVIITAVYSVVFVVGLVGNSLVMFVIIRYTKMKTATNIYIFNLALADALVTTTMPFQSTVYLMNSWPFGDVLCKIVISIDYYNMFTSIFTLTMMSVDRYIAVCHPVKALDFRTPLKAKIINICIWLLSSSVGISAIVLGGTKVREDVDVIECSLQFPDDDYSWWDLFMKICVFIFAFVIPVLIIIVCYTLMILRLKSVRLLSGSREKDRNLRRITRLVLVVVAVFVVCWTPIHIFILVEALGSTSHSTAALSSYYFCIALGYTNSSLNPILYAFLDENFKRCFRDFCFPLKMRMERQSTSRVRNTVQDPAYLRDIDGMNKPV

[4] = biological target: T3, 3-hydroxy-3-methylglutaryl-coenzyme A reductase (Homo sapiens, UniProt P04035); set-up: species or system Escherichia coli;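 also: enzyme inhibition assay of HMG-CoA reductase using radiolabeled [14C]HMG-CoA as substrate; in other assays of this panel Not Active means under 50% inhibition at 10 µM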
T3 sequence (P04035 whole entry): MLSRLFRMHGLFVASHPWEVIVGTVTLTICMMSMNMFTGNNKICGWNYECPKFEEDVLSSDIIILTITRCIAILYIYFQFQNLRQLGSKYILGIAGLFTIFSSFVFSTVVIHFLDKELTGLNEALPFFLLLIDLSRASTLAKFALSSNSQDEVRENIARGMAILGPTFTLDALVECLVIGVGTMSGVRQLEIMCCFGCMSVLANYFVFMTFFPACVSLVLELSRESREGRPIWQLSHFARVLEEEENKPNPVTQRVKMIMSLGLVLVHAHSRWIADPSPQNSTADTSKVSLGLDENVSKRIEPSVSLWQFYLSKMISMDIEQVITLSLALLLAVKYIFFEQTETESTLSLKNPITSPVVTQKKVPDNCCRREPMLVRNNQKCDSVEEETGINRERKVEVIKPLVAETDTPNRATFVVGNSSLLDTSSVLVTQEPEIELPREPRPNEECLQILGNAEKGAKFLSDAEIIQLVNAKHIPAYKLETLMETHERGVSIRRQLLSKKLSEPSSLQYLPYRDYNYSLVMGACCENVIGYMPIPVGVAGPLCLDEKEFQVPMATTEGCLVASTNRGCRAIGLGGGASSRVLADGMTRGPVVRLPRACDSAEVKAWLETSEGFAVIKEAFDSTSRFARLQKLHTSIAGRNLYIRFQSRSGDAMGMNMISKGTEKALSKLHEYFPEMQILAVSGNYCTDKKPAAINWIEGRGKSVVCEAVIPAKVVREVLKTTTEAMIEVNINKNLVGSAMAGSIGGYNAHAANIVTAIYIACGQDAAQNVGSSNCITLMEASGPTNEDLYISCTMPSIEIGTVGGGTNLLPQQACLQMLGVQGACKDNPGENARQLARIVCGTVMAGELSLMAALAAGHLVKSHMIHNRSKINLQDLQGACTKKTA

[5] = biological target: Vascular endothelial growth factor receptor 1 (Homo sapiens, UniProt P17948); assay type: cell-based; details: huvec; also: in other assays of this panel Not Active means under 50% inhibition at 10 µM
Chain of Vascular endothelial growth factor receptor 1 (P17948 whole entry): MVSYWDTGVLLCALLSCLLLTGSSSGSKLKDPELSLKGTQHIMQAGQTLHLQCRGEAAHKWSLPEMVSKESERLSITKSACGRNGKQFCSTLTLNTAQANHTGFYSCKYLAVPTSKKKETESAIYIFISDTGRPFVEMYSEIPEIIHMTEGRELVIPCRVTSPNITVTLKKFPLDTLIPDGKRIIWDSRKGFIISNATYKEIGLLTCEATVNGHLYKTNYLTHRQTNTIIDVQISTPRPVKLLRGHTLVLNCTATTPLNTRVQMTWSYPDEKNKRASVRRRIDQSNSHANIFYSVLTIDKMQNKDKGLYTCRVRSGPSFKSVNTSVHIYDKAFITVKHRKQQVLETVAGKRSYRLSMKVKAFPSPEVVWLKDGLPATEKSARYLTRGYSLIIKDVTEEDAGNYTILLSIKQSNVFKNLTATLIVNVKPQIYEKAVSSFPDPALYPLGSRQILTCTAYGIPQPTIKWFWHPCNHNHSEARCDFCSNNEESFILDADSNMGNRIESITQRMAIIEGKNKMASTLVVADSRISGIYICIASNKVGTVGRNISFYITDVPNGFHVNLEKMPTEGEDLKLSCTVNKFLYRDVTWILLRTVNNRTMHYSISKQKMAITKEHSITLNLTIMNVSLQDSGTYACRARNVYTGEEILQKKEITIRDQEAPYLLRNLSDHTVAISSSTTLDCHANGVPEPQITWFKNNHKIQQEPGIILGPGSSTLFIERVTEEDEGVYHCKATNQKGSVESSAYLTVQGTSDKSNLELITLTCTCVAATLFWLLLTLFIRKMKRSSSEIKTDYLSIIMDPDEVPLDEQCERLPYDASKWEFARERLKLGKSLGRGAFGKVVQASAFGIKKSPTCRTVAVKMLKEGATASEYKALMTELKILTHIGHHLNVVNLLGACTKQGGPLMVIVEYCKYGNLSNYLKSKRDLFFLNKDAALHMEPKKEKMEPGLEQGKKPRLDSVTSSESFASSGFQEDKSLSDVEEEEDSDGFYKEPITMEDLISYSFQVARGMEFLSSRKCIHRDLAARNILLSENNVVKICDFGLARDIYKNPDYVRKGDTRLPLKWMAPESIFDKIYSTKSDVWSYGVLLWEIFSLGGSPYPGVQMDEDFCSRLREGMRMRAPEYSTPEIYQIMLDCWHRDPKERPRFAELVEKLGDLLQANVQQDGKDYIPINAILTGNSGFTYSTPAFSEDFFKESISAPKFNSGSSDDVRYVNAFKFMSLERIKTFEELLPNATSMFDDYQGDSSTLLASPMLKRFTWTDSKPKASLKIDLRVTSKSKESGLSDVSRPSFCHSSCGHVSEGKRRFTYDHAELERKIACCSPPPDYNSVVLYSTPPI

[6] = biological target: Mitogen-activated protein kinase 14 (Homo sapiens, UniProt Q16539); set-up: species or system Escherichia coli
Chain of Mitogen-activated protein kinase 14 (Q16539 whole entry): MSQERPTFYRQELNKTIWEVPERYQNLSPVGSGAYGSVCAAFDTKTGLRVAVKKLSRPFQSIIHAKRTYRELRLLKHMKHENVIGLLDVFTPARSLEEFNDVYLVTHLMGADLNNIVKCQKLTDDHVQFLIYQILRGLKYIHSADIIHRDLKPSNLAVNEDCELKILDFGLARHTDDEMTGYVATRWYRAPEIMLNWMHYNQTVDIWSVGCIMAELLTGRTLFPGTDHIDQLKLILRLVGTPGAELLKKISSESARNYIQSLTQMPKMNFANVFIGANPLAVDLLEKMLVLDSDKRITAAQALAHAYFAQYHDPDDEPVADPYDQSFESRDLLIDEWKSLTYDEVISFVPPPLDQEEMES

Vasopressin V1a receptor = Vasopressin V1a receptor (Homo sapiens, UniProt P37288); assay type: cell membranes, Membrane; details: hek293; also: in other assays of this panel Not Active means under 50% inhibition at 10 µM
Chain of Vasopressin V1a receptor (P37288 whole entry): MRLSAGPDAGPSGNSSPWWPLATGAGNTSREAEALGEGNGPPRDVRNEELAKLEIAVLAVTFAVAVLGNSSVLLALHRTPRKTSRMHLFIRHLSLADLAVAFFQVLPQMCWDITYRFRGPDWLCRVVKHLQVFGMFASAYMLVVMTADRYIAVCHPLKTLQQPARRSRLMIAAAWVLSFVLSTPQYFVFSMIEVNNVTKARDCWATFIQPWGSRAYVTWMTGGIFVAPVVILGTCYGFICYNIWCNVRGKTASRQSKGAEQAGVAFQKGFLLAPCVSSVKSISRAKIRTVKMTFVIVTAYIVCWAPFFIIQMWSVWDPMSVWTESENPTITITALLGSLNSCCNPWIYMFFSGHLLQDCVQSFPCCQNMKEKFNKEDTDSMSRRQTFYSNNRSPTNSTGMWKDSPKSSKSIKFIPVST

[7] = DRUGMATRIX: GABAA, Flunitrazepam, Central radioligand binding (ligand: [3H] Flunitrazepam); assay type: cell membranes, Rattus norvegicus, Wistar, Brain, Membrane; details: Not Active = under 50% inhibition at 10 µM
Caspase-1 = biological target: T4, Caspase-1 (Homo sapiens, UniProt P29466); set-up: species or system Escherichia coli
T4 sequence (P29466 whole entry): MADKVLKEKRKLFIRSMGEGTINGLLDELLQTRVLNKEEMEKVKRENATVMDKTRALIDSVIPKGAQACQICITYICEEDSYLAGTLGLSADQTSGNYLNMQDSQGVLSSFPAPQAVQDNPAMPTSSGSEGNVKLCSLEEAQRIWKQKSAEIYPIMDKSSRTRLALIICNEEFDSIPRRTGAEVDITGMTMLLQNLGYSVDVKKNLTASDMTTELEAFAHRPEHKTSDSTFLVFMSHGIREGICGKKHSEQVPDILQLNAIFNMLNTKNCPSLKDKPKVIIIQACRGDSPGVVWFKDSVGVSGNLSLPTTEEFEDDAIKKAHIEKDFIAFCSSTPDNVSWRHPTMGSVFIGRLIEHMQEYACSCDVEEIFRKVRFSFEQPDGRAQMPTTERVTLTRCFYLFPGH

[8] = DRUGMATRIX: Sodium/nucleoside co-transporter radioligand binding (ligand: nitrobenzylthioinosine); assay type: cell membranes, Cavia porcellus, Dunkin-Hartley, Cerebral cortex, Membrane; details: Not Active = under 50% inhibition at 10 µM

COc1ccc2cc(CC(=O)O)ccc2c1
Not Active: IC50 [1] | IC50 [2] | IC50 [3] | IC50 [4] | IC50 [5] | IC50 [6] | IC50 (Vasopressin V1a receptor) | IC50 [7] | Ki [7] | IC50 (Caspase-1) | IC50 [8] | Ki [8]

CC(C)NC[C@H](O)COc1cccc2[nH]ccc12
Not Active: IC50 [1] | IC50 [2] | IC50 [3] | IC50 [4] | IC50 [5] | IC50 [6] | IC50 (Vasopressin V1a receptor) | IC50 [7] | Ki [7] | IC50 (Caspase-1) | IC50 [8] | Ki [8]

CC(/C=C1\SC(=S)N(CC(=O)O)C1=O)=C\c1ccccc1
Not Active: IC50 [1] | IC50 [2] | IC50 [3] | IC50 [4] | IC50 [5] | IC50 [6] | IC50 (Vasopressin V1a receptor) | IC50 [7] | Ki [7] | IC50 (Caspase-1) | IC50 [8] | Ki [8]

CC[N+](CC)(CC)CCOc1cccc(OCC[N+](CC)(CC)CC)c1OCC[N+](CC)(CC)CC.[I-].[I-].[I-] [GALLAMINE TRIETHIODIDE]
Not Active: IC50 [2] | IC50 [3] | IC50 [4] | IC50 [5] | IC50 [6] | IC50 (Vasopressin V1a receptor) | IC50 [7] | Ki [7] | IC50 (Caspase-1) | IC50 [8] | Ki [8]

Fc1ccc([C@@H]2CCNC[C@H]2COc2ccc3c(c2)OCO3)cc1 [PAROXETINE]
Not Active: IC50 [3] | IC50 [4] | IC50 [5] | IC50 [6] | IC50 (Vasopressin V1a receptor) | IC50 [7] | Ki [7] | IC50 (Caspase-1) | IC50 [8] | Ki [8]

CISPLATIN
Not Active: IC50 [1] | Ki [1] | IC50 [2] | Ki [2] | IC50 [4] | Ki [4] | IC50 [5] | Ki [5] | IC50 [6] | Ki [6] | IC50 (Vasopressin V1a receptor) | Ki (Vasopressin V1a receptor) | IC50 [7] | Ki [7] | IC50 (Caspase-1) | Ki (Caspase-1) | IC50 [8] | Ki [8]

GOLD SODIUM THIOMALATE
Not Active: IC50 [1] | Ki [1] | IC50 [2] | Ki [2] | IC50 [4] | Ki [4] | IC50 [5] | Ki [5] | IC50 [6] | Ki [6] | IC50 (Vasopressin V1a receptor) | Ki (Vasopressin V1a receptor) | IC50 [7] | Ki [7] | IC50 (Caspase-1) | Ki (Caspase-1) | IC50 [8] | Ki [8]

OXALIPLATIN
Not Active: IC50 [1] | Ki [1] | IC50 [2] | Ki [2] | IC50 [4] | Ki [4] | IC50 [5] | Ki [5] | IC50 [6] | Ki [6] | IC50 (Vasopressin V1a receptor) | Ki (Vasopressin V1a receptor) | IC50 [7] | Ki [7] | IC50 (Caspase-1) | Ki (Caspase-1) | IC50 [8] | Ki [8]
